In general, GI50 refers to the concentration giving 50% growth inhibition.

Assay [1] deals with U-251. As to the kind of experiment: Growth inhibition of human U251 cells preincubated for 24 hrs followed by compound-washout measured at 48 hrs by sulforhodamine assay. The class given is functional.
The subject of assay [2] is U-251. The assay can be described thus: Induction of methuosis in human U251 cells assessed as loss of membrane integrity at 10 uM after 2 days by phase-contrast microscopic analysis. The assay is classed as functional, cell-based.
Assay [3] has as its system U-251. As to the kind of experiment: Induction of methuosis in human U251 cells assessed as sparse cells at 10 uM after 1 day by phase-contrast microscopic analysis. The assay is classed as functional, cell-based.
Assay [4] concerns U-251. The assay can be described thus: Induction of methuosis in human U251 cells assessed as detachment of vacuolated cells at 10 uM after 2 days by phase-contrast microscopic analysis. The class given is functional, cell-based.
Assay [5] has as its system U-251. As to the kind of experiment: Induction of methuosis in human U251 cells assessed as heavily vacuolated cells at 10 uM after 1 day by phase-contrast microscopic analysis. The class given is functional, cell-based.
In assay [6] the test system is U-251. The assay can be described thus: Induction of methuosis in human U251 cells assessed as decrease in cell proliferation at 10 uM after 2 days by phase-contrast microscopic analysis. The class given is functional, cell-based.

Activity calls are given as the source filed them. No cut-off for these calls is given here. Some results are limits rather than exact numbers.

Compound `CCc1[nH]c2ccc(OC)cc2c1/C=C/C(=O)c1ccncc1` displayed a 50% growth inhibitory concentration (GI50) with U-251 [1] of 3.2 µM. Further, the outcome in the assay on U-251 [2], in the assay on U-251 [3], in the assay on U-251 [4] and in the assay with U-251 [5] was Active.
In the case of `COc1ccc2[nH]c(C(C)C)c(/C=C/C(=O)c3ccncc3)c2c1`, the result in the assay on U-251 [6] and in the assay with U-251 [4] was inactive. Besides, the GI50 in the assay on U-251 [1] is over 20 µM. Besides, in the assay with U-251 [5], the outcome was Active.
For `CCCc1[nH]c2ccc(OC)cc2c1/C=C/C(=O)c1ccncc1`, the result in the assay on U-251 [6] and in the assay on U-251 [4] was inactive. The compound also returned a GI50 in the assay on U-251 [1] of 15.3 µM. Besides, in the assay with U-251 [5], the outcome was Active.
Consider `COc1ccc2[nH]c(C)c(/C=C/C(=O)c3cccnc3)c2c1`, for which the result with U-251 [6] and in the assay with U-251 [5] was inactive. Besides, the GI50 in the assay on U-251 [1] was 16.9 µM.
Take `COc1ccc2[nH]c(CC(C)C)c(/C=C/C(=O)c3ccncc3)c2c1`: the result in the assay on U-251 [6] and in the assay on U-251 [4] was inactive. For the same compound, in the assay on U-251 [1], growth was halved (GI50) at 16.6 µM. For the same compound, the outcome in the assay with U-251 [5] was Active.
For `COc1ccc2[nH]cc(/C=C/C(=O)c3ccncc3)c2c1`, the result in the assay with U-251 [6] and with U-251 [4] was inactive. For the same compound, in the assay with U-251 [1], the 50% growth inhibitory concentration (GI50) was 18.6 µM. In addition, in the assay on U-251 [5], the result was Active.

The values above are taken from ChEMBL document CHEMBL3108671, “Differential Induction of Cytoplasmic Vacuolization and Methuosis by Novel 2-Indolyl-Substituted Pyridinylpropenones” (2014).
